Results taken from patent US20260085053A1, “BENZOFURAN DERIVATIVES AS SIK INHIBITORS AND THE USE THEREOF” (BEONE MEDICINES I GMBH, priority 2023, published 2026).

Columns and labels:
[1] = biological target: T1, SIK1 kinase (aa1-303, Thermo Fisher) (Homo sapiens, UniProt P57059); experiment: Biochemical activities determination for SIK1 protein (TR-FRET); settings: 110 uM ATP, 0.5 μM STK1 substrate
T1 construct: SIK1 kinase (aa1-303, Thermo Fisher); purchased Thermo Fisher
Experimental: 1. Biochemical Activities Determination for SIK1 Protein
(§1) Compounds were tested for inhibition of SIK1 kinase (aa1-303, Thermo Fisher) in assays based on the time-resolved fluorescence-resonance energy transfer (TR-FRET) methodology. The assays were carried out in 384-well low volume white plates in a reaction mixture containing SIK1 kinase, 110 uM ATP, 0.5 μM STK1 substrate and 0-10 μM compound in buffer containing 25 mM Tris, 0.01% Trition X-100, 0.5 mM EGTA, 5 mM MgCl2, 2.5 mM DTT, pH=7.5. The kinase was incubated with compounds for 60 minutes at room temperature and the reaction was initiated by the addition of ATP and STK1 substrate. After reaction at room temperature for 180 minutes, an equal volume of stop/detection solution was added according to the manufacture's instruction (CisBio Bioassays). The stop/detection solution contained STK Antibody-Cryptate and XL665-conjugated streptavidin (Cat: 62ST1PEC, Cisbio) in Detection Buffer (Cat: 62SDBRDF, Cisbio). Plates were sealed and incubated at room temperature for overnight, and the TR-FRET signals (ratio of fluorescence emission at 665 nm over emission at 620 nm with excitation at 337 nm wavelength) were recorded on a PHERAstar FS plate reader (BMG Labtech). Phosphorylation of STK1 substrate led to the binding of STK Antibody-Cryptate to the biotinylated SIK1 substrate, which places fluorescent donor (Eu^3+ crypate) in close proximity to the accepter (Streptavidin-XL665), thus resulting in a high degree of fluorescence resonance energy transfer from the donor fluorophore (at 620 nm) to the acceptor fluorophore (at 665 nm). […] The IC50 for each compound was derived from fitting the data to the four-parameter logistic equation by Dotmatics.

[2] = biological target: T2, SIK2 kinase (full length, Thermo Fisher) (Homo sapiens, UniProt Q9H0K1); experiment: Biochemical activities determination for SIK2 protein (TR-FRET); settings: 80 uM ATP, 0.5 μM substrate
T2 construct: SIK2 kinase (full length, Thermo Fisher); purchased Thermo Fisher
T2 sequence (Q9H0K1 whole entry): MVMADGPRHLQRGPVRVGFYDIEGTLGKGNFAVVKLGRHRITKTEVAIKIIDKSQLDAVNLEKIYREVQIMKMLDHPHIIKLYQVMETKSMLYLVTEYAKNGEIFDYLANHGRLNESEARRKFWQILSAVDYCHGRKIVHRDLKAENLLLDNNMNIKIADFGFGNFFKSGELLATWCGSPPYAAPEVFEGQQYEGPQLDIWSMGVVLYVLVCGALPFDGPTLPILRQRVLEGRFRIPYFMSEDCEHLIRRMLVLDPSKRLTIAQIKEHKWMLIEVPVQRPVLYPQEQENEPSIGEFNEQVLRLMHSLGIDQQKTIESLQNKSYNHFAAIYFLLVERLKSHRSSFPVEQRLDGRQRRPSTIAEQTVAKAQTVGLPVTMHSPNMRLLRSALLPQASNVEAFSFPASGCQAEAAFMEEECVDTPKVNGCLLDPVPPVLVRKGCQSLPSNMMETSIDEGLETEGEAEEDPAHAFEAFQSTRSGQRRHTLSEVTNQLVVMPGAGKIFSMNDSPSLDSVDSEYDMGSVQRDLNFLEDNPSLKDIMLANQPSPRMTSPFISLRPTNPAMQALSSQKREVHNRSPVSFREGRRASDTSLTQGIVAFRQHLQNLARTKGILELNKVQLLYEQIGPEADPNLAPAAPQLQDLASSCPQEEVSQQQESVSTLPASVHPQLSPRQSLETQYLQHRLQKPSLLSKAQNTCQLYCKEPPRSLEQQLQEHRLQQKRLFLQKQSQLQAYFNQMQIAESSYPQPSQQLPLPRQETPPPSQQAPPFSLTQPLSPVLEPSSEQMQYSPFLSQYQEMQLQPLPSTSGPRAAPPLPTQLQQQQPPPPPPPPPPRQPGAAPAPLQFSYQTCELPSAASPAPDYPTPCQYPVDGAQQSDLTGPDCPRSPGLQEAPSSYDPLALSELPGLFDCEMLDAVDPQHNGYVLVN
Experimental: 2. Biochemical Activities Determination for SIK2 Protein
as §1, with “of SIK2” for “of SIK1”, “kinase (full length,” for “kinase (aa1-303,”, “containing SIK2” for “containing SIK1”, “kinase, 80” for “kinase, 110”, “μM […]” for “μM STK1”, “biotinylated STK1” for “biotinylated SIK1”

[3] = biological target: T3, SIK3 kinase (aa59-365, Thermo Fisher) (Homo sapiens, UniProt Q9Y2K2); experiment: Biochemical activities determination for SIK3 protein (TR-FRET); settings: 125 uM ATP, 0.5 μM STK1 substrate
T3 construct: SIK3 kinase (aa59-365, Thermo Fisher); purchased Thermo Fisher
T3 sequence (Q9Y2K2 59-365): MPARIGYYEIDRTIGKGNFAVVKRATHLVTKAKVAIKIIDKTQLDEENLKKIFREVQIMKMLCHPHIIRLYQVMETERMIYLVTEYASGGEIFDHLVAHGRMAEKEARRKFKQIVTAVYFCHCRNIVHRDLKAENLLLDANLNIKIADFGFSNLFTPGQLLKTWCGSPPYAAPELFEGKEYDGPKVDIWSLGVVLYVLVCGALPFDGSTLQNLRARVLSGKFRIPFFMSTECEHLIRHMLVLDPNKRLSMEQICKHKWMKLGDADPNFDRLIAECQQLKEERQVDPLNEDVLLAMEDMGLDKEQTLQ
Experimental: 3. Biochemical Activities Determination for SIK3 Protein
Compounds were tested for inhibition of SIK3 kinase (aa59-365, Thermo Fisher) in assays based on the time-resolved fluorescence-resonance energy transfer (TR-FRET) methodology. The assays were carried out in 384-well low volume white plates in a reaction mixture containing SIK3 kinase, 125 uM ATP, 0.5 μM STK1 substrate and 0-10 μM compound in buffer containing 25 mM Tris, 0.01% Trition X-100, 0.5 mM EGTA, 5 mM MgCl2, 2.5 mM DTT, PH=7.5. The kinase was incubated with compound for 60 minutes at room temperature and the reaction was initiated by the addition of ATP and STK1 substrate. After reaction at room temperature for 180 minutes, an equal volume of stop/detection solution was added according to the manufacture's instruction (CisBio Bioassays). The stop/detection solution contained STK Antibody-Cryptate and XL665-conjugated streptavidin (Cat: 62ST1PEC, Cisbio) in Detection Buffer (Cat: 62SDBRDF, Cisbio). Plates were sealed and incubated at room temperature for overnight, and the TR-FRET signals (ratio of fluorescence emission at 665 nm over emission at 620 nm with excitation at 337 nm wavelength) were recorded on a PHERAstar FS plate reader (BMG Labtech). Phosphorylation of STK1 substrate led to the binding of STK Antibody-Cryptate to the biotinylated STK1 substrate, which places fluorescent donor (Eu^3+ crypate) in close proximity to the accepter (Streptavidin-XL665), thus resulting in a high degree of fluorescence resonance energy transfer from the donor fluorophore (at 620 nm) to the acceptor fluorophore (at 665 nm). […] The IC50 for each compound was derived from fitting the data to the four-parameter logistic equation by Dotmatics.

T1 sequence (P57059 1-303): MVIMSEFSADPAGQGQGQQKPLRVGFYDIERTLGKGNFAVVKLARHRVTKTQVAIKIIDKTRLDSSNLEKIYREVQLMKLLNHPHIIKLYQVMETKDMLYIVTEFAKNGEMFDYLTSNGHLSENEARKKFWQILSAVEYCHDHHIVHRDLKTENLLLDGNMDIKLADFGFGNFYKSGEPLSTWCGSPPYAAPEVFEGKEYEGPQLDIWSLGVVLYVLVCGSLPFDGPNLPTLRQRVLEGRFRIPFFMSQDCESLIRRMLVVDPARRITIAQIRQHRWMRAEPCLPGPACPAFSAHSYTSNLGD

| SMILES | IC50 [1] | IC50 [2] | IC50 [3] |
| --- | --- | --- | --- |
| O=C1c2c(cc(-c3coc4cc(-c5cnn(C6CCNCC6)c5)ccc34)cc2OC(F)F)CCN1CC(F)(F)F [Compound 43, 8-(difluoromethoxy)-6-(6-(1-(piperidin-4-yl)-1H-pyrazol-4-yl)benzofuran-3-yl)-2-(2,2,2-trifluoroethyl)-3,4-dihydroisoquinolin-1 (2H)-one] | 676 nM | 8 nM | 57 nM |
| CN1CC(n2cc(-c3ccc4c(-c5cc6c(c(OC(F)F)c5)C(=O)N(CC(F)(F)F)CC6)coc4c3)cn2)C1 [Compound 44, 8-(difluoromethoxy)-6-(6-(1-(1-methylazetidin-3-yl)-1H-pyrazol-4-yl)benzofuran-3-yl)-2-(2,2,2-trifluoroethyl)-3,4-dihydroisoquinolin-1 (2H)-one] | 538 nM | 5.2 nM | 45 nM |
| N#CCCN1CC(n2cc(-c3ccc4c(-c5cc6c(c(OC(F)F)c5)C(=O)N(CC(F)(F)F)CC6)coc4c3)cn2)C1 [Compound 45, 3-(3-(4-(3-(8-(difluoromethoxy)-1-oxo-2-(2,2,2-trifluoroethyl)-1,2,3,4-tetrahydroisoquinolin-6-yl)benzofuran-6-yl)-1H-pyrazol-1-yl)azetidin-1-yl) propanenitrile] | 560 nM | 9.8 nM | 28 nM |
| CN1CCC(n2cc(-c3ccc4c(-c5cc6c(c(OC(F)F)c5)C(=O)N(CC(F)(F)F)CC6)coc4c3)cn2)CC1 [Compound 46, 8-(difluoromethoxy)-6-(6-(1-(1-methylpiperidin-4-yl)-1H-pyrazol-4-yl)benzofuran-3-yl)-2-(2,2,2-trifluoroethyl)-3,4-dihydroisoquinolin-1 (2H)-one] | 430 nM | 7.8 nM | 36.1 nM |
| CN1CCC(n2cc(-c3ccc4c(-c5cc6c(c(OC(F)F)c5)C(=O)N(CC(F)(F)F)CC6)coc4c3)cn2)C1 (stereo not drawn) [Compound 47, 8-(difluoromethoxy)-6-(6-(1-(1-methylpyrrolidin-3-yl)-1H-pyrazol-4-yl)benzofuran-3-yl)-2-(2,2,2-trifluoroethyl)-3,4-dihydroisoquinolin-1 (2H)-one] | 335 nM | 3 nM | 33 nM |
| O=C1c2c(cc(-c3coc4cc(-c5cnn(C6CCNC6)c5)ccc34)cc2OC(F)F)CCN1CC(F)(F)F (stereo not drawn) [Compound 48, 8-(difluoromethoxy)-6-(6-(1-(pyrrolidin-3-yl)-1H-pyrazol-4-yl)benzofuran-3-yl)-2-(2,2,2-trifluoroethyl)-3,4-dihydroisoquinolin-1 (2H)-one] | 524 nM | 11 nM | 63 nM |
| COc1cc(-c2coc3cc(-c4cnn(C5CCOC5)c4)ccc23)cc2c1C(=O)N(CC(F)(F)F)CC2 (stereo not drawn) [Compound 49, 8-methoxy-6-(6-(1-(tetrahydrofuran-3-yl)-1H-pyrazol-4-yl)benzofuran-3-yl)-2-(2,2,2-trifluoroethyl)-3,4-dihydroisoquinolin-1 (2H)-one] | 337 nM | 11 nM | 25 nM |

Second part, the compound after the results:

| IC50 [1] | IC50 [2] | IC50 [3] | SMILES |
| --- | --- | --- | --- |
| 347 nM | 17 nM | 34 nM | COc1cc(-c2coc3cc(-c4cnn(C5CCOCC5)c4)ccc23)cc2c1C(=O)N(CC(F)(F)F)CC2 [Compound 50, 8-methoxy-6-(6-(1-(tetrahydro-2H-pyran-4-yl)-1H-pyrazol-4-yl)benzofuran-3-yl)-2-(2,2,2-trifluoroethyl)-3,4-dihydroisoquinolin-1 (2H)-one] |
| 317 nM | 3.7 nM | 26 nM | COc1cc(-c2coc3cc(-c4cnn(C5CCN(C)C5)c4)ccc23)cc2c1C(=O)N(CC(F)(F)F)CC2 (stereo not drawn) [Compound 51, 8-methoxy-6-(6-(1-(1-methylpyrrolidin-3-yl)-1H-pyrazol-4-yl)benzofuran-3-yl)-2-(2,2,2-trifluoroethyl)-3,4-dihydroisoquinolin-1 (2H)-one] |
| 212 nM | 4.9 nM | 23 nM | COc1cc(-c2coc3cc(-c4cnn(C5CCN(C)CC5)c4)ccc23)cc2c1C(=O)N(CC(F)(F)F)CC2 [Compound 52, 8-methoxy-6-(6-(1-(1-methylpiperidin-4-yl)-1H-pyrazol-4-yl)benzofuran-3-yl)-2-(2,2,2-trifluoroethyl)-3,4-dihydroisoquinolin-1 (2H)-one] |
| 294 nM | 2.8 nM | 19 nM | COc1cc(-c2coc3cc(-c4cnn(C5CN(C)C5)c4)ccc23)cc2c1C(=O)N(CC(F)(F)F)CC2 [Compound 53, 8-methoxy-6-(6-(1-(1-methylazetidin-3-yl)-1H-pyrazol-4-yl)benzofuran-3-yl)-2-(2,2,2-trifluoroethyl)-3,4-dihydroisoquinolin-1 (2H)-one] |
| 326 nM | 6.9 nM | 19 nM | COc1cc(-c2coc3cc(-c4cnn(C5CN(CCC#N)C5)c4)ccc23)cc2c1C(=O)N(CC(F)(F)F)CC2 [Compound 54, 3-(3-(4-(3-(8-methoxy-1-oxo-2-(2,2,2-trifluoroethyl)-1,2,3,4-tetrahydroisoquinolin-6-yl)benzofuran-6-yl)-1H-pyrazol-1-yl)azetidin-1-yl) propanenitrile] |
| 301 nM | 3.9 nM | 18 nM | CN1CCC(n2cc(-c3ccc4c(-c5cc6c(c(OC(F)F)c5)C(=O)N(CC#N)CC6)coc4c3)cn2)CC1 [Compound 55, 2-(8-(difluoromethoxy)-6-(6-(1-(1-methylpiperidin-4-yl)-1H-pyrazol-4-yl)benzofuran-3-yl)-1-oxo-3,4-dihydroisoquinolin-2 (1H)-yl) acetonitrile] |
| 315 nM | 2.6 nM | 15 nM | CN1CCC(n2cc(-c3ccc4c(-c5cc6c(c(OC(F)F)c5)C(=O)N(CC#N)CC6)coc4c3)cn2)C1 (stereo not drawn) [Compound 56, 2-(8-(difluoromethoxy)-6-(6-(1-(1-methylpyrrolidin-3-yl)-1H-pyrazol-4-yl)benzofuran-3-yl)-1-oxo-3,4-dihydroisoquinolin-2 (1H)-yl) acetonitrile] |
| 405 nM | 2.7 nM | 17 nM | CN1CC(n2cc(-c3ccc4c(-c5cc6c(c(OC(F)F)c5)C(=O)N(CC#N)CC6)coc4c3)cn2)C1 [Compound 57, 2-(8-(difluoromethoxy)-6-(6-(1-(1-methylazetidin-3-yl)-1H-pyrazol-4-yl)benzofuran-3-yl)-1-oxo-3,4-dihydroisoquinolin-2 (1H)-yl) acetonitrile] |
